Results reported in PubChem BioAssay AID1963424 (Molecular Pharmacology Branch, DTP, NCI, 2024).
“And” between values parts separate entries of the source, which are not always exact repeats. Equal values may be shown once.

Tested on: 327498-153-R-J2-PDC complex spheroid growth, % test/control
Test: Anticancer human tumor 327498-153-R-J2-PDC patient-derived uterine carcinosarcoma cell line growth inhibition [Asc]
Settings: for viability, T/C: stronger effect = lower value
In short: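 Stromal components (HUVEC and hMSC) are co-assembled with the cancer cells into multicellular spheroids. Drugs are then added singly or paired, at concentrations falling by half-log increments from a clinically achievable maximum, capped at 10 microM without known Cmax.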

[1] = curve of first compound, second compound 0.03 µM
[2] = curve of first compound, second compound 0.0949 µM
[3] = curve of first compound, second compound 0.3 µM
[4] = curve of first compound, second compound 0.949 µM
[5] = curve of first compound, second compound 3 µM
[6] = second compound 0.03 µM, first compound 0.00316 µM
[7] = second compound 0.03 µM, first compound 0.01 µM
[8] = second compound 0.03 µM, first compound 0.0316 µM
[9] = second compound 0.03 µM, first compound 0.1 µM
[10] = second compound 0.0949 µM, first compound 0.00316 µM
[11] = second compound 0.0949 µM, first compound 0.01 µM
[12] = second compound 0.0949 µM, first compound 0.0316 µM
[13] = second compound 0.0949 µM, first compound 0.1 µM
[14] = second compound 0.3 µM, first compound 0.00316 µM
[15] = second compound 0.3 µM, first compound 0.01 µM
[16] = second compound 0.3 µM, first compound 0.0316 µM
[17] = second compound 0.3 µM, first compound 0.1 µM
[18] = second compound 0.949 µM, first compound 0.00316 µM
[19] = second compound 0.949 µM, first compound 0.01 µM
[20] = second compound 0.949 µM, first compound 0.0316 µM
[21] = second compound 0.949 µM, first compound 0.1 µM
[22] = second compound 3 µM, first compound 0.00316 µM
[23] = second compound 3 µM, first compound 0.01 µM
[24] = second compound 3 µM, first compound 0.0316 µM
[25] = second compound 3 µM, first compound 0.1 µM
[26] = second compound 0.03 µM, first compound 0.316 µM
[27] = second compound 0.03 µM, first compound 1 µM
[28] = second compound 0.0949 µM, first compound 0.316 µM
[29] = second compound 0.0949 µM, first compound 1 µM
[30] = second compound 0.3 µM, first compound 0.316 µM
[31] = second compound 0.3 µM, first compound 1 µM
[32] = second compound 0.949 µM, first compound 0.316 µM
[33] = second compound 0.949 µM, first compound 1 µM
[34] = second compound 3 µM, first compound 0.316 µM
[35] = second compound 3 µM, first compound 1 µM
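Note: spheroids exposed to compound for 7 days after 3 days of growth.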
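Throughout, for viability, T/C: 100% = DMSO vehicle control wells.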

| Structure (SMILES) | IC50 [1] [nM] | IC50 [2] [nM] | IC50 [3] [nM] | IC50 [4] [nM] | IC50 [5] [nM] | viability, T/C [6] [%] | viability, T/C [7] [%] | viability, T/C [8] [%] | viability, T/C [9] [%] | viability, T/C [10] [%] | viability, T/C [11] [%] | viability, T/C [12] [%] | viability, T/C [13] [%] | viability, T/C [14] [%] | viability, T/C [15] [%] | viability, T/C [16] [%] | viability, T/C [17] [%] | viability, T/C [18] [%] | viability, T/C [19] [%] | viability, T/C [20] [%] | further results |
| --- | --- | --- | --- | --- | --- | --- | --- | --- | --- | --- | --- | --- | --- | --- | --- | --- | --- | --- | --- | --- | --- |
| NC1CCC(NC2CC2c2ccccc2)CC1 (configuration not stated) + CCN1C(C(=O)NC23CCC(C(=O)O)(CC2)CC3)C(c2cccc(Cl)c2F)C2(C(=O)Nc3cc(Cl)ccc32)C12CCCCC2 | > 100 | > 100 | < 0.316 | < 0.316 | < 0.316 | 93.8 | 92.4 | 103 | 97.3 | 83.4 | 84.9 | 83.9 | 87.4 | 43.8 | 39.1 | 49.8 | 43.6 | 15.8 | 11.6 | 14.7 | viability, T/C (second compound 0.03 µM, first compound 0.000316 µM): 103%; viability, T/C (second compound 0.03 µM, first compound 0.001 µM): 94.5%; viability, T/C (second compound 0.0949 µM, first compound 0.000316 µM): 84.3%; viability, T/C (second compound 0.0949 µM, first compound 0.001 µM): 84.4%; viability, T/C (second compound 0.3 µM, first compound 0.000316 µM): 53%; viability, T/C (second compound 0.3 µM, first compound 0.001 µM): 47.9%; viability, T/C (second compound 0.949 µM, first compound 0.000316 µM): 10.8%; viability, T/C (second compound 0.949 µM, first compound 0.001 µM): 12.7%; viability, T/C [21]: 16.5%; viability, T/C (second compound 3 µM, first compound 0.000316 µM): 4.55%; viability, T/C (second compound 3 µM, first compound 0.001 µM): 5.4%; viability, T/C [22]: 2.47%; viability, T/C [23]: 7.42%; viability, T/C [24]: 5.29%; viability, T/C [25]: 4.14% |
| O=C(c1ccc(F)c(F)c1Nc1ccc(I)cc1F)N1CC(O)([C@@H]2CCCCN2)C1 + CCN1C(C(=O)NC23CCC(C(=O)O)(CC2)CC3)C(c2cccc(Cl)c2F)C2(C(=O)Nc3cc(Cl)ccc32)C12CCCCC2 | 227 | 47.8 | < 3.16 | < 3.16 | < 3.16 | 98.2 | 85 | 70.5 | 64.5 | 67 | 61.4 | 55.3 | 41.3 | 37.2 | 29.1 | 17.3 | 15.7 | 8.99 | 6.26 | 4.91 | viability, T/C [26]: 50.3%; viability, T/C [27]: 16%; viability, T/C [28]: 28.4%; viability, T/C [29]: 8.51%; viability, T/C [30]: 11.1%; viability, T/C [31]: 3.71%; viability, T/C [21]: 4.3%; viability, T/C [32]: 2.73%; viability, T/C [33]: 1.43%; viability, T/C [22]: 3.41%; viability, T/C [23]: 1.87%; viability, T/C [24]: 2.1%; viability, T/C [25]: 1.08%; viability, T/C [34]: 1.35%; viability, T/C [35]: 0.86% |
| COc1c(OCCCN2CCOCC2)ccc2c3n(c(=NC(=O)c4cnc(N)nc4)nc12)CCN3 | – | – | – | – | – | – | – | – | – | – | – | – | – | – | – | – | – | – | – | – | viability, T/C (compound 0.00316 µM): 93.8% and 96.5% and 105%; viability, T/C (compound 0.01 µM): 92% and 91.4% and 97.5%; viability, T/C (compound 0.0316 µM): 71.2% and 78.3% and 85.6%; viability, T/C (compound 0.1 µM): 51.4% and 57.8% and 60.5%; viability, T/C (compound 0.316 µM): 23.9% and 27.6% and 26.7%; viability, T/C (compound 1 µM): 6.91% and 7.65% and 9.2%; IC50 (curve of compound): 99.9 nM and 131 nM and 140 nM |
| CCN1CCN(Cc2ccc(Nc3ncc(F)c(-c4cc(F)c5nc(C)n(C(C)C)c5c4)n3)nc2)CC1 + CCN1C(C(=O)NC23CCC(C(=O)O)(CC2)CC3)C(c2cccc(Cl)c2F)C2(C(=O)Nc3cc(Cl)ccc32)C12CCCCC2 | > 1000 | 28.8 | < 3.16 | < 3.16 | < 3.16 | 86.8 | 84.2 | 77.1 | 52.4 | 68 | 68.4 | 48.3 | 31.7 | 34.3 | 26.6 | 18.2 | 15.4 | 9.27 | 8.09 | 6.59 | viability, T/C [26]: 48.4%; viability, T/C [27]: 53.3%; viability, T/C [28]: 39.8%; viability, T/C [29]: 39%; viability, T/C [30]: 17.9%; viability, T/C [31]: 21.3%; viability, T/C [21]: 7.13%; viability, T/C [32]: 8.2%; viability, T/C [33]: 11.3%; viability, T/C [22]: 3.59%; viability, T/C [23]: 3.67%; viability, T/C [24]: 2.51%; viability, T/C [25]: 3.55%; viability, T/C [34]: 4.83%; viability, T/C [35]: 8.39% |
